The conditions of data set [1]: cited from earlier work.
The conditions of data set [2]: cited from earlier work. This is another data set of the same source.
Data set [3] in a line: Adrenal scanning/visualization in patients, comparison of 75Se compound with 19-iodocholesterol-131I. It counts as in vivo, humans. Conditions: for time after injection at which scans could be taken: p.i.; for dose giving equally good adrenal scans: per kg body weight, adrenal cortex adenomas or hyperplasia. On the procedure: (§1) Two patients with Cushing Syndrome were injected intravenously with 500μCi of 6β-methylselenomethyl-19-norcholest-5(10)-en-3β-ol-^75 Se formulated in normal saline stabilized with polysorbate. Repeated gamma camera scans and whole body-, urine- and blood measurements were made during a period of two weeks post injection. In one patient a maximum uptake of 17μCi in the left adrenal region was measured, the removed adrenal cortex adenoma, weight 66 g, containing 15μCi of ^75 Se.
Furthermore, the ^75 Se compound allowed scans to be taken at an earlier point of time after injection than was the case with 19-iodocholesterol-^131 I (2-3 days in contrast to 6-10 days p.i.).

For data set [4] the following is noted: cited from earlier work. The source holds these as a separate data set.
The nature of data set [5]: Adrenal uptake of 75Se in patients with Cushing Syndrome (gamma camera scans). It counts as in vivo, humans. The method, then: as §1
Data set [6] can be described thus: Tissue distribution in a female dog, 6th day post-injection. It counts as in vivo. On the procedure:
250μCi of 6β-methylselenomethyl-19-norcholest-5(10)-en-[…]-^75 Se was intravenously injected into a female dog (13.7 kg). The dog was housed in a metabolism cage for the daily collection of urine and faeces. On the 6th day post-injection the animal was sacrificed (i.v. sodium pento-barbitone)and tissue and organ samples collected. The weighed samples were then assayed for radioactive content.
The resulting tissue distribution (expressed in terms of % dose kg/g) is tabulated below: […]

Data set [7] is described as follows: Tissue distribution of selenium-75-labelled sterols in rats, sixth day post-injection. Conditions: tail vein, dose: 1, 7: 40 μCi, 6: 50 μCi, 3: 30 μCi, 4: 1.5 μCi, 5: 10 μCi, 8: 6.3 μCi. It counts as in vivo, rats of the C.F.Y. strain. On the procedure:
The tissue distribution and target to non-target concentration ratios for seven compounds were studied in male and female rats (150-180 g) of the C.F.Y. strain. Each compound (in a volume of 0.3ml) was injected via the tail vein into two male and two female rats. The animals were then housed in separate metabolism cages prior to sacrifice and dissecting on the sixth day post-injection.

The conditions of data set [8]: compared with 19-iodocholesterol-131I; cited from earlier work.
Where [9] appears, read: 250μCi intravenous, female dog, 6th day.
Where [10] appears, read: 250μCi intravenous, female dog, daily collection to 6th day.

Molecules are shown by their SMILES. Read-outs that look alike come from different tables or passages of the source.

With `CC(C)CCC[C@@H](C)[C@H]1CC[C@H]2[C@@H]3CC=C4C[C@@H](O)CC[C@]4(C[131I])[C@H]3CC[C@]12C` [19-iodocholesterol-^131 I], the “concentration in / uptake into human adrenal glands” value in data set [1] is listed as “concentrate in the adrenal glands”. The “concentration in rat adrenal tissue” value in data set [2] is “concentrate in the adrenal glands”. Moreover, in data set [3], the “time after injection at which scans could be taken” value was in the range of 6 to 10 days and the “dose giving equally good adrenal scans” value is 10-20 μCi/kg. For the same compound, the “concentration in adrenal glands of dogs” value in data set [4] is reported as “concentrate in the adrenal glands”.

With `C[75Se]C[C@]12CC[C@H](O)CC1=CC[C@@H]1[C@@H]2CC[C@]2(C)[C@@H]([C@H](C)CCCC(C)C)CC[C@@H]12` [19-methylselenocholesterol], in data set [1], the “concentration in / uptake into human adrenal glands” value is reported as “poor”. The “concentration in the adrenal cortex” value in data set [1] (human) is recorded as “appears not to be concentrated in the adrenal cortex”. In data set [1] (some instances), the “uptake into pheochromocytomas of human adrenal medullary tissue” value is on record as “some instances have been cited of its uptake into pheochromocytomas”. Also, the “concentration in rat adrenal tissue” value in data set [2] is reported as “concentrated strongly in rat adrenal tissue”.

With `C[75Se]C[C@@H]1C[C@@H]2[C@H](CC[C@]3(C)[C@@H]([C@H](C)CCCC(C)C)CC[C@@H]23)C2=C1C[C@@H](O)CC2` [Example 1, 6β-methylselenomethyl-19-norcholest-5(10)-en-3β-ol-^75 Se], in data set [5] (compared with 19-iodocholesterol-131I in five other adrenal cortex adenomas), the “75Se uptake per gram of tissue in the adrenal adenoma” value is recorded as “higher than that of 19-iodocholesterol-^131 I”. Also, the “concentration in the adrenal glands” value in data set [5] (humans) is given as “concentrate in the adrenal glands of humans”. The “maximum uptake in the left adrenal region” value in data set [5] (one patient with Cushing Syndrome, 500μCi intravenous, two weeks of scans) turned out to be 17 μCi. For the same compound, the “75Se uptake in each of both adrenal regions” value in data set [5] (other patient with Cushing Syndrome, 500μCi intravenous) is reported as 3 μCi. For the same compound, the “75Se contained in removed adrenal cortex adenoma” value in data set [5] (same patient, adenoma weight 66 g, 500μCi intravenous) amounted to 15 μCi. In addition, in data set [3] (comparable cases with adrenal cortex adenomas or hyperplasia, smaller dose), the “quality of adrenal scans compared with 19-iodocholesterol-131I” value is on record as “equally good adrenal scans”. The “visualization of adrenal glands and detection of adrenal cortex adenomas” value in data set [3] (humans) is “enabling their visualization and the detection of adrenal cortex adenomas”. In data set [3], the “time after injection at which scans could be taken” value lay within 2 to 3 days and the “dose giving equally good adrenal scans” value is on record as 7 μCi/kg. In data set [6] (setting [9]), the “% dose kg/g, Adrenals” value is given as 7.240 % dose kg/g; the “% dose kg/g, Bile” value is given as 0.485 % dose kg/g; the “% dose kg/g, Blood” value amounted to 0.066 % dose kg/g; the “% dose kg/g, Kidneys” value was 0.175 % dose kg/g. Also, in data set [6] (setting [9]), the “% dose kg/g, Liver” value is 0.143 % dose kg/g; the “% dose kg/g, Lungs” value is reported as 0.164 % dose kg/g; the “% dose kg/g, Muscle” value amounted to 0.042 % dose kg/g; the “% dose kg/g, Ovaries” value is given as 1.571 % dose kg/g. In addition, in data set [6] (setting [9]), the “% dose kg/g, Spleen” value worked out at 0.083 % dose kg/g; the “% dose kg/g, adrenal cortex” value is reported as 9.925 % dose kg/g; the “% of dose, Adrenals” value was 0.622 % of dose; the “% of dose, Blood” value was 5.989 % of dose. Further, in data set [6] (setting [9]), the “% of dose, Kidneys” value was 0.712 % of dose; the “% of dose, Liver” value is given as 3.894 % of dose; the “% of dose, Lungs” value is given as 1.136 % of dose; the “% of dose, Ovaries” value is 0.303 % of dose. Also, in data set [6] (setting [9]), the “% of dose, Spleen” value was 0.528 % of dose. Further, in data set [6] (setting [10]), the “% of dose, Total Faeces” value is recorded as 27.691 % of dose and the “% of dose, Total Urine” value was 1.953 % of dose. Besides, the “concentration in the adrenal cortex” value in data set [6] (dogs) is “concentrates in the adrenal cortex”. Also, in data set [7] (female rats), the “% dose kg./g. in Ovaries” value is 2.356 % dose kg./g. For the same compound, in data set [7] (male and female rats), the “% dose kg./g. in Adrenals” value was 9.885 % dose kg./g, the “% dose kg./g. in Blood” value worked out at 0.024 % dose kg./g, the “% dose kg./g. in Kidneys” value was determined as 0.116 % dose kg./g and the “% dose kg./g. in Liver” value turned out to be 0.054 % dose kg./g. Further, the “% dose kg./g. in Muscle” value in data set [7] (male and female rats) was found to be 0.023 % dose kg./g. Besides, the “% dose kg./g. in Testes” value in data set [7] (male rats) is listed as 0.044 % dose kg./g. Further, in data set [7] (rats), the “Concentration Ratio; Adrenals: Kidneys” value was 91.9, the “Concentration Ratio; Adrenals: Liver” value is 163.9, the “Concentration Ratio; Adrenals: Muscle” value is recorded as 436.7 and the “Concentration Ratio; Adrenals: Ovaries” value amounted to 4.5. Moreover, the “Concentration Ratio; Adrenals: Testes” value in data set [7] (rats) is given as 211.9. For the same compound, the “Concentration Ratio; Adrenals: Blood” value in data set [7] (rats, 8640 min) came to 433.1.

For `CC(C)CCC[C@@H](C)[C@H]1CC[C@H]2[C@@H]3C[C@@H](C[131I])C4=C(CC[C@H](O)C4)[C@H]3CC[C@]12C` [^131 I-iodinated rearranged product, 6β-iodomethyl-19-norcholest-5(10)-en-3β-ol], the “effectiveness as adrenal scanning agent” value in data set [8] is listed as “far more effective adrenal scanning agent than 19-iodocholesterol-^131 I”.

The values above are taken from patent publication US4083947A, “Organ visualization” (The Radiochemical Centre Limited, priority 1975, dated 1978).
